Experimental data from US6451767B1, “Benzylmaltotriosides as inhibitors of smooth muscle cell proliferation” (Wyeth, priority 1998, dated 2002).

What was measured:
[1] = tested on: Porcine Smooth Muscle Cell; experiment: Cell proliferation using 3H thymidine incorporation; type: cell-based; settings: for IC50: serum/growth factor stimulated cells, 3H thymidine incorporation, 24-36 h, read-out: Porcine Smooth Muscle Cell Antiproliferation IC50; for inhibition at 500 µM: Sus scrofa, read-out: Porcine Smooth Muscle Cell Antiproliferation, % inhibition
Method: Effects of Compounds on Cell Proliferation Using ^3H Thymidine Incorporation
Human and porcine smooth muscle cells were tested in early passage (generally passage 3-7) at sub-confluent conditions. Cultures were grown in 16 mm (24 well) multi-well culture dishes in medium 199 supplemented with 10% fetal bovine serum and 2% antibiotic/antimycotic. At sub-confluence, the cells were placed in a defined serum free medium (AIM-V; Gibco) for 24-48 h prior to initiating the experimental protocol.
Compounds were added to each well at 50 fold dilution (20 μL/well) and the plates were incubated for 24-36 h at 37° C. in 5% CO2. Compounds were initially dissolved in 50% ethanol and serially diluted into media. Compounds were routinely evaluated at concentrations from 1 to 100 μM. As a control, grade II porcine intestinal mucosal heparin (sodium salt) was routinely evaluated in all cell preparations at concentrations from 0.1 to 100 μg/mL.
At the completion of the test procedure, plates were placed on ice, washed three times with ice cold phosphate buffered saline (PBS) and incubated in ice cold 10% trichloroacetic acid (TCA) got 30 min to remove acid soluble proteins. Solution was transferred to scintillation vials containing 0.4 N HCl (500 μL/vial to neutralize NaOH) and each well was rinsed two times with water (500 μL) for a total volume of 2 mL/vial.
Data was obtained, in triplicate, for both control and experimental samples. Control (100%) data was obtained from maximally stimulated cells, as the result of growth factor or serum stimulation. Experimental data was obtained from cells maximally stimulated with growth factor or serum and treated with compound. Data are expressed as an IC50 in Table I below.

Row | melting point [°C] | Compound | IC50 [1] [µM] | inhibition at 500 µM [1] [%]
1 |  | N-[5-(Deca-O-acetyl-β-D-maltotriosyloxymethyl)-2-chloro-phenyl]-acetamide [Example 2] | 22.5 | 
2 | 95 to 134 | Nc1cc(COC2OC(CO)C(OC3OC(CO)C(OC4OC(CO)C(O)C(O)C4O)C(O)C3O)C(O)C2O)ccc1Cl [Example 5, 5-(β-D-maltotriosyloxymethyl)-2-chloro-phenylamine] |  | 25
3 |  | 5-(Deca-O-acetyl-β-D-maltotriosyloxymethyl)-2-chloro-1-nitrobenzene [Example 1] | 1.8 | 
4 |  | N-[5-(Deca-O-sulfo-β-D-maltotriosyloxymethyl)-2-chloro-phenyl]-acetamide decasodium salt [Example 4] | 112 | 
5 | 135 to 148 | CC(=O)Nc1cc(COC2OC(CO)C(OC3OC(CO)C(OC4OC(CO)C(O)C(O)C4O)C(O)C3O)C(O)C2O)ccc1Cl [Example 3, N-[5-(β-D-maltotriosyloxymethyl)-2-chloro-phenyl]-acetamide] |  | 10
